Measurements published in article PMC4578723 (Biochemical and biophysical research communications, 2013).

Molecular target: PTEN (Homo sapiens, UniProt P60484)
Test: absorbance […] nm, pNPP hydrolysis
Type: biochemical
Settings: 100 mM pNPP; 25 °C; Tris-HCl pH 8.0

Chain of PTEN (P60484 2-403): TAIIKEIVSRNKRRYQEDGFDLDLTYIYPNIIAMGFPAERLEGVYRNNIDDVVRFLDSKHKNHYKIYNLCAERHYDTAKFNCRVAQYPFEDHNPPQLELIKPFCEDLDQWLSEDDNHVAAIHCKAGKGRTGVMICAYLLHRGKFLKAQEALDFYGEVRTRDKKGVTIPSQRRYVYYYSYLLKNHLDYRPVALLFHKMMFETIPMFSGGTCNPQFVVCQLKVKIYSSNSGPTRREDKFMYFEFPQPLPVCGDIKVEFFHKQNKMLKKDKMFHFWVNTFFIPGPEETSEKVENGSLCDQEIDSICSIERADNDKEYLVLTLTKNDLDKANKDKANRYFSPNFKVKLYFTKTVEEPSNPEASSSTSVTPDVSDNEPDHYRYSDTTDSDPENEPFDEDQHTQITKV

## O=[N+]([O-])c1ccc(OP(=O)(O)O)cc1 [pNPP]
  absorbance 405 nm, pNPP hydrolysis: in vitro activity and affinity for pNPP substrate are similar for both INPP4B and PTEN
